Measured values from US8664267B2 (Academic Pharmaceuticals Incorporated, priority 2007, dated 2014).

Tests used:
[1] = system: dog; conditions: Torres-Arrault et al. 1984, cited from earlier work
[2] = system: Coronary Occlusion (Rat)
[3] = administered intravenously; cited from earlier work

| Compound | cardiac depressant effect [1] | hypotension ([1]; dog) | dose-dependent suppression of arrhythmias compared with the saline control group [2] | onset of action and hemodynamic and electrophysiological effect [3] |
| --- | --- | --- | --- | --- |
| CCCCCCCC/C=C\CCCCCCCC(=O)OCCOCC(OCCO)C1OCC(OCCO)C1OCCO (stereo not shown) [Tween-80, polysorbate 80] | potent cardiac depressant | causes hypotension | – | – |
| CCCCc1oc2ccccc2c1C(=O)c1cc(I)c(OCCN(CC)CC)c(I)c1 [amiodarone, 2-n-butyl-3-(3,5-diiodo-4-β-N-diethylaminoethoxy-benzoyl)benzofuran] | – | – | significantly different | rapid onset of action causing profound hemodynamic and electrophysiological effect |
